target: hENPP2 (UniProtKB/SwissProt Sequence ref Q13822) (Homo sapiens (Human), UniProt Q13822); experiment: LPC hENPP2 assay (choline release, LPC as substrate); assay type: biochemical
Experimental: The principle of the assay consists in quantifying the released choline with an enzymatic method using choline oxidase and peroxidase. Choline oxydation by choline oxydase releases betaine and peroxide. The latter is quantified in presence of HRP that converts the peroxide detection agent TOOS and 4-aminoantipyrine into quinoneimine dye. The appearance of quinoneimine dye is measured spectrophotometrically at 555 nm and is proportional to the amount of choline released by ENPP2. Inhibition of ENPP2 will result in a decrease of the signal.
The reaction is terminated and choline quantified by the addition of a 25 μL of a mixture containing 0.6 U/mL of choline oxidase, 0.6 U/mL of peroxydase, 1.8 mM TOOS, 1.2 mM amino-antipyrine, 20 mM EGTA (stop-developer solution) diluted in the buffer described above. […] is read on the Envision after an incubation of 30 min at room temperature (Excitation 555 nm, excitation light=70%).

Row | SMILES | IC50 [nM]
1 | CCc1nc2ccc(N3CC[C@@H](NCC(=O)N(C)C)C3)nn2c1N(C)c1nc(-c2ccc(F)cc2)c(C#N)s1 [Cpd 177, (R)-2-(1(3-((5-cyano-4-(4-fluorophenyl)thiazol-2-yl)(methyl)amino)-2-ethylimidazo[1,2-b]pyridazin-6-yl)pyrrolidin-3-ylamino)-N,N-dimethylacetamide] | 0.01 to 100
2 | CCc1nc2ccc(N3CC[C@@H](NCC(=O)N4CC(O)C4)C3)nn2c1N(C)c1nc(-c2ccc(F)cc2)c(C#N)s1 [Cpd 176, (R)-2-((2-ethyl-6-(3-(2-(3-hydroxyazetidin-1-yl)-2-oxoethylamino)pyrrolidin-1-yl)imidazo[1,2-b]pyridazin-3-yl)(methyl)amino)-4-(4-fluorophenyl) thiazole-5-carbonitrile] | 0.01 to 100
3 | CCc1nc2ccc(N3CCC4(CC(=O)NC4=O)C3)nn2c1N(C)c1nc(-c2ccc(F)cc2)cs1 (stereo not drawn) [Cpd 121, 7-(2-ethyl-3-((4-(4-fluorophenyl)thiazol-2-yl)(methyl)amino)imidazo[1,2-b]pyridazin-6-yl)-2,7-diazaspiro[4.4] nonane-1,3-dione] | > 1000
4 | CCc1nc2ccc(N3CCC(CNC(=O)C4CCOCC4)CC3)nn2c1N(C)c1nc(-c2ccc(F)cc2)cs1 [Cpd 107, N-((1-(2-ethyl-3-((4-(4-fluorophenyl)thiazol-2-yl)(methyl)amino)imidazo[1,2-b]pyridazin-6-yl)piperidin-4-yl)methyl) tetrahydro-2H-pyran-4-carboxamide] | 500 to 1000
5 | CCc1nc2ccc(C3CCNCC3)nn2c1N(C)c1nc(-c2ccc(F)cc2C#N)ns1 [Compound 219, 2-(5-((2-ethyl-6-(piperidin-4-yl)imidazo[1,2-b]pyridazin-3-yl)(methyl)amino)-1,2,4-thiadiazol-3-yl)-5-fluorobenzonitrile] | > 1000
6 | CCc1nc2ccc(N3CCC(NC(=O)CO)CC3)nn2c1N(C)c1nc(-c2ccc(F)cc2)cs1 [Cpd 85, N-(1-(2-ethyl-3-((4-(4-fluorophenyl)thiazol-2-yl)(methyl)amino)imidazo[1,2-b]pyridazin-6-yl)piperidin-4-yl)-2-hydroxyacetamide] | > 1000
7 | CCc1nc2ccc(N3CC(NC(=O)OC(C)(C)C)C3)nn2c1N(C)c1nc(-c2ccc(F)cc2)c(C#N)s1 [Cpd 187, [1-(3-{[5-Cyano-4-(4-fluoro-phenyl)-thiazol-2-yl]-methyl-amino}-2-ethyl-imidazo[1,2-b]pyridazin-6-yl)-azetidin-3-yl]-carbamic acid tert-butyl ester] | 100 to 500
8 | CCc1nc2ccc(N3CCC(CN)CC3)nn2c1N(C)c1nc(-c2ccc(F)cc2)cs1 [Cpd 104, N-(6-(4-(aminomethyl)piperidin-1-yl)-2-ethylimidazo[1,2-b]pyridazin-3-yl)-4-(4-fluorophenyl)-N-methylthiazol-2-amine] | > 1000
9 | CCc1nc2cnc(N3CCN(CC(=O)N4CC(F)(F)C4)CC3)cn2c1N(C)c1nc(-c2ccc(F)cc2)c(C#N)s1 [Cpd 3, 2-((6-(4-(2-(3,3-difluoroazetidin-1-yl)-2-oxoethyl)piperazin-1-yl)-2-ethylimidazo[1,2-a]pyrazin-3-yl)(methyl)amino)-4-(4-fluorophenyl) thiazole-5-carbonitrile] | > 1000
10 | CCc1nc2ccc(N3CC[C@H](NCC(=O)N(C)C)C3)nn2c1N(C)c1nc(-c2ccc(F)cc2)c(C#N)s1 [Cpd 175, (S)-2-(1-(3-((5-cyano-4-(4-fluorophenyl)thiazol-2-yl)(methyl)amino)-2-ethylimidazo[1,2-b]pyridazin-6-yl)pyrrolidin-3-ylamino)-N,N-dimethylacetamide] | 0.01 to 100
11 | CCc1nc2ccc(N3CCC(C(=O)OC)C3)nn2c1N(C)c1nc(-c2ccc(F)cc2)cs1 (stereo not drawn) [Cpd 139, 1-(2-Ethyl-3-{[4-(4-fluoro-phenyl)-thiazol-2-yl]-methyl-amino}-imidazo[1,2-b]pyridazin-6-yl)-pyrrolidine-3-carboxylic acid methyl ester] | > 1000
12 | CCc1nc2ccc(N3CCC4(CN(C)C(=O)O4)C3)nn2c1N(C)c1nc(-c2ccc(F)cc2)cs1 (stereo not drawn) [Cpd 119, 7-(2-ethyl-3-((4-(4-fluorophenyl)thiazol-2-yl)(methyl)amino)imidazo[1,2-b]pyridazin-6-yl)-3-methyl-1-oxa-3,7-diazaspiro[4.4] nonan-2-one] | 100 to 500
13 | CCc1nc2ccc(N3CCC(N4CCC(N(C)C(C)=O)CC4)C3)nn2c1N(C)c1nc(-c2ccc(F)cc2)c(C#N)s1 (stereo not drawn) [Cpd 181, N-(1-(1-(3-((5-cyano-4-(4-fluorophenyl)thiazol-2-yl)(methyl)amino)-2-ethylimidazo[1,2-b]pyridazin-6-yl)pyrrolidin-3-yl)piperidin-4-yl)-N-methylacetamide] | 0.01 to 100
14 | CCc1nc2ccc(N3CCC[C@H]3C(=O)O)nn2c1N(C)c1nc(-c2ccc(F)cc2)cs1 [Compound 138, (S)-1-(2-ethyl-3-((4-(4-fluorophenyl)thiazol-2-yl)(methyl)amino)imidazo[1,2-b]pyridazin-6-yl)pyrrolidine-2-carboxylic acid] | > 1000
15 | CCc1nc2ccc(N3CCN(S(C)(=O)=O)[C@H](CO)C3)nn2c1N(C)c1nc(-c2ccc(F)cc2)c(C#N)s1 [Cpd 161, (S)-2-((2-ethyl-6-(3-(hydroxymethyl)-4-(methylsulfonyl)piperazin-1-yl)imidazo[1,2-b]pyridazin-3-yl)(methyl)amino)-4-(4-fluorophenyl) thiazole-5-carbonitrile] | 100 to 500
16 | CCc1nc2ccc(N3CCC(NC(=O)CO)C3)nn2c1N(C)c1nc(-c2ccc(F)cc2)cs1 (stereo not drawn) [Compound 136, N-(1-(2-ethyl-3-((4-(4-fluorophenyl)thiazol-2-yl)(methyl)amino)imidazo[1,2-b]pyridazin-6-yl)pyrrolidin-3-yl)-2-hydroxyacetamide] | > 1000
17 | CCc1nc2ccc(N3CCC(N4C[C@@H](C)O[C@@H](C)C4)C3)nn2c1N(C)c1nc(-c2ccc(F)cc2)c(C#N)s1 (stereo partly drawn) [Compound 178, 2-((6-(3-((2S,6R)-2,6-dimethylmorpholino)pyrrolidin-1-yl)-2-ethylimidazo[1,2-b]pyridazin-3-yl)(methyl)amino)-4-(4-fluorophenyl)thiazole-5-carbonitrile] | 500 to 1000
18 | CCc1nc2ccc(N3CCC4(CCN(C(=O)OC(C)(C)C)C4)C3)nn2c1N(C)c1nc(-c2ccc(F)cc2)c(C#N)s1 (stereo not drawn) [Cpd 165, tert-butyl 7-(3-((5-cyano-4-(4-fluorophenyl)thiazol-2-yl)(methyl)amino)-2-ethylimidazo[1,2-b]pyridazin-6-yl)-2,7-diazaspiro[4.4] nonane-2-carboxylate] | 100 to 500
19 | CCc1nc2ccc(N3C[C@H]4C[C@H]3CN4S(C)(=O)=O)nn2c1N(C)c1nc(-c2ccc(F)cc2)cs1 [Cpd 76, N-(2-ethyl-6-((1S,4R)-5-(methylsulfonyl)-2,5-diazabicyclo[2.2.1]heptan-2-yl)imidazo[1,2-b]pyridazin-3-yl)-4-(4-fluorophenyl)-N-methylthiazol-2-amine] | > 1000
20 | CCc1nc2ccc(C3CCN(CC(=O)NC)CC3)nn2c1N(C)c1nc(-c2ccc(F)cc2C#N)cs1 [Cpd 209, 2-(4-(3-((4-(2-cyano-4-fluorophenyl)thiazol-2-yl)(methyl)amino)-2-ethylimidazo[1,2-b]pyridazin-6-yl)piperidin-1-yl)-N-methylacetamide] | 100 to 500
21 | CCc1nc2ccc(N3CCC(O)CC3)nn2c1N(C)c1nc(-c2ccc(F)cc2)cs1 [Cpd 90, 1-(2-ethyl-3-((4-(4-fluorophenyl)thiazol-2-yl)(methyl)amino)imidazo[1,2-b]pyridazin-6-yl)piperidin-4-ol] | > 1000
22 | CCc1nc2ccc(N3CC[C@H](C#N)C3)nn2c1N(C)c1nc(-c2ccc(F)cc2)cs1 [Cpd 128, (S)-1-(2-ethyl-3-((4-(4-fluorophenyl)thiazol-2-yl)(methyl)amino)imidazo[1,2-b]pyridazin-6-yl)pyrrolidine-3-carbonitrile] | > 1000
23 | CCc1nc2cnc(N3CCN(CC(=O)N4CCC4)CC3)cn2c1N(C)c1nc(-c2ccc(F)cc2)cs1 [Cpd 13, 1-(azetidin-1-yl)-2-(4-(2-ethyl-3-((4-(4-fluorophenyl)thiazol-2-yl)(methyl)amino)imidazo[1,2-a]pyrazin-6-yl)piperazin-1-yl)ethanone] | > 1000
24 | CCc1nc2ccc(N3CCN(CC(=O)N4CCCC4C)CC3)nn2c1N(C)c1nc(-c2ccc(F)cc2)cs1 (stereo not drawn) [Cpd 28, 2-(4-(2-ethyl-3-((4-(4-fluorophenyl)thiazol-2-yl)(methyl)amino)imidazo[1,2-b]pyridazin-6-yl)piperazin-1-yl)-1-(2-methylpyrrolidin-1-yl)ethanone] | 100 to 500
25 | CCc1nc2ccc(N3CC(NCC(=O)N(C)C)C3)nn2c1N(C)c1nc(-c2ccc(F)cc2)cs1 [Cpd 156, 2-(1-(2-ethyl-3-((4-(4-fluorophenyl)thiazol-2-yl)(methyl)amino)imidazo[1,2-b]pyridazin-6-yl)azetidin-3-ylamino)-N,N-dimethylacetamide] | 500 to 1000
26 | CCc1nc2ccc(N3CCC(O)(CNC(=O)C(C)C)C3)nn2c1N(C)c1nc(-c2ccc(F)cc2)c(C#N)s1 (stereo not drawn) [Cpd 170, N-((1-(3-((5-cyano-4-(4-fluorophenyl)thiazol-2-yl)(methyl)amino)-2-ethylimidazo[1,2-b]pyridazin-6-yl)-3-hydroxypyrrolidin-3-yl)methyl) isobutyramide] | 100 to 500
27 | CCc1nc2ccc(N3CCN(S(C)(=O)=O)[C@H](COC)C3)nn2c1N(C)c1nc(-c2ccc(F)cc2)cs1 [Compound 62, (S)—N-(2-ethyl-6-(3-(methoxymethyl)-4-(methylsulfonyl)piperazin-1-yl)imidazo[1,2-b]pyridazin-3-yl)-4-(4-fluorophenyl)-N-methylthiazol-2-amine] | > 1000

Source: patent publication US9796719B2, “Compounds and pharmaceutical compositions thereof for the treatment of inflammatory disorders” (GALAPAGOS NV, priority 2013, dated 2017)
